In patent US7067619B2, “Integrin-binding peptides” (La Jolla Cancer Research Foundation, priority 1993, dated 2006):
Read-outs that look alike come from different tables or passages of the source. Bridge positions count the residues as written; N and C are the ends. Ends that are not written are not given here.

Key:
[1] = tested on: α5β1 integrin; assay: Cell attachment to immobilized […] peptide (B2/α27 vs B2/Cl cells); format: cell-based, human; conditions: FIG. 8
Source text: (§1) Cell lines expressing fibronectin-binding integrins were used to determine peptide activities against these integrins in the cell attachment assay described by Ruoslahti et al., Meth. Enzymol., 144:803–831 (1982), which is incorporated herein by reference. Human plasma fibronectin was iodinated as described by Morla and Ruoslahti, J. Cell Biol., 118:421–429 (1992), which is incorporated herein by reference. Vitronectin was obtained from Telios Pharmaceuticals (San Diego, Calif.). […] Peptide was coated on plastic by incubating at 37° C. for 2 hours in phosphate buffered saline containing 0.25% glutaraldehyde to crosslink the peptide. Free binding sites on the plastic were blocked using BSA. Approximately 1×10^5 cells per well were allowed to attach for 1 hour in the presence or absence of competing peptides. Bound cells were quantitated by staining with 0.1% amido black.
In addition to the inhibition of cell attachment to natural ligands, attachment and inhibition assays were performed using the […] [SEQ ID NO:6] peptide as substrate. The microliter well were coated with […] [SEQ ID NO:6] using glutaraldehyde as described above. Briefly, peptide was coated on plastic by incubating at 37° C. for 2 hours in phosphate buffered saline containing 0.25% glutaraldehyde to crosslink the peptide and free binding sites on the plastic were blocked using BSA. The wells were then saturated with BSA followed by the addition of 50,000 B2/α27 or B2/Cl cells in the presence or absence of the indicated inhibitor. […] Bound cells were quantitated by staining with 0.1% amido black.

[2] = target: T1, α5β1 integrin (Homo sapiens, UniProt P05556+P08648); assay: Inhibition of peptide-displaying phage binding to α5β1 integrin by synthetic peptides
T1 construct: The αvβ3, αvβ5 and α5β1 integrins were isolated from human placental extracts; from tissue; host or cells: human placenta
T1 sequence (P08648 42-894 limits assumed): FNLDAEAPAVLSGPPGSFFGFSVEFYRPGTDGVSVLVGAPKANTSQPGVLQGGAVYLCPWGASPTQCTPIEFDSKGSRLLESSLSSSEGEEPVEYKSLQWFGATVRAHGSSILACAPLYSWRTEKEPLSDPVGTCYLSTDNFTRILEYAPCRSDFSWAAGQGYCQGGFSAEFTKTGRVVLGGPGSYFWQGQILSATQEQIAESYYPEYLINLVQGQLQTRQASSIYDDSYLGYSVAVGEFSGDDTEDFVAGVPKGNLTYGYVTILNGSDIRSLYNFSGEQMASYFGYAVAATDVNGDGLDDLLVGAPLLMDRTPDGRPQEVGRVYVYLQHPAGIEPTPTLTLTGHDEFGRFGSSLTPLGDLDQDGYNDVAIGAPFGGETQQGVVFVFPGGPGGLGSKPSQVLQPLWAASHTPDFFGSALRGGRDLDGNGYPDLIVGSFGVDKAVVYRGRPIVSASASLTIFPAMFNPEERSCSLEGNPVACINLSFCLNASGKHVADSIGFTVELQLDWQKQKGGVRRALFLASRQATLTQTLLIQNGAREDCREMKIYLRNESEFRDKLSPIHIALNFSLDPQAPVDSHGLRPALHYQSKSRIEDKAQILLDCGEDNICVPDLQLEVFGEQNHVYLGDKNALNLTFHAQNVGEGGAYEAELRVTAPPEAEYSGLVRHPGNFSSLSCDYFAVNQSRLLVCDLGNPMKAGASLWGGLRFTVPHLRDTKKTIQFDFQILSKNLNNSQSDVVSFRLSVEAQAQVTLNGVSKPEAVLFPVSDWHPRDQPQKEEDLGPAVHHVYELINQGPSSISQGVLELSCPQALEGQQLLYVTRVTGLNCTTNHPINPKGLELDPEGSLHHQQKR
T1 sequence (P08648 895-1049 partner limits assumed): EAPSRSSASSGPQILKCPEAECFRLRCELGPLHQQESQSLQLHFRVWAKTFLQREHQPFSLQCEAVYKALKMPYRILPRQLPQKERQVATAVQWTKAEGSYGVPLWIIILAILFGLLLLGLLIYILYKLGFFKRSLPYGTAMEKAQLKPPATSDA
T1 sequence (P05556 21-798): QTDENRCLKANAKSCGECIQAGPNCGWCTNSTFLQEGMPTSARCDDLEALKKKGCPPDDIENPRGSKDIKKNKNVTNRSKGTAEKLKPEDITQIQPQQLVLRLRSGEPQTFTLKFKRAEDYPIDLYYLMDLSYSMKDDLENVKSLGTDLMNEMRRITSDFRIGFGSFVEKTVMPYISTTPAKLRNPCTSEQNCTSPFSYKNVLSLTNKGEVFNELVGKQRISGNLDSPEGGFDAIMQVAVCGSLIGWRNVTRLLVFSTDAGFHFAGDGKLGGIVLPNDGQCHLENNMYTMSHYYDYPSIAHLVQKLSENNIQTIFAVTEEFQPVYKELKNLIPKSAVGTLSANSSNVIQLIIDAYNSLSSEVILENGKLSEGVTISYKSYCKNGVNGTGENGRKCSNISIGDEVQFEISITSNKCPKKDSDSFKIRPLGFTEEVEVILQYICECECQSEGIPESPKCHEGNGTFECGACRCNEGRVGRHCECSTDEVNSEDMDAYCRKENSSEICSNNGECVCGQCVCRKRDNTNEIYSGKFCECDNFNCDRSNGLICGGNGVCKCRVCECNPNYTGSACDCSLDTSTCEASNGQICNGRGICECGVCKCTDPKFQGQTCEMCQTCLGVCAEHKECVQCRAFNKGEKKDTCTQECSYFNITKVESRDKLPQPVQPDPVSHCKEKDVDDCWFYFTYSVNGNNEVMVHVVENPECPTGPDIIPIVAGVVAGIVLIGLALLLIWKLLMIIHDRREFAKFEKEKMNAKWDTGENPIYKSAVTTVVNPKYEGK
Protocol: Phage clone containing the RGDGW [SEQ ID NO:9] sequence was incubated for 1 hour in integrin-coated microliter wells in the presence of the competing peptides. After extensive washing, the phage remained bound were determined as described in Example XII.
(§2) In addition, most of the phage-binding activity in the αvβ3 preparation was captured into microliter wells coated with antibodies against the αv or β3 subunits as described previously (Koivunen et al., J. Biol. Chem., 268:20205–10 (1993). The αIIbβ3 integrin was isolated from outdated platelets (Pytela et al., Science, 231:1559–1562 (1986)).
(§3) Binding of individual cloned phage to integrins was studied in microliter wells as described in Koivunen et al., J. Cell. Biol., 124:373–380 (1994). Phage binding to α5β1 and αvβ3 were assayed in TBS buffer containing 1% BSA and 1 mM MnCl2 and binding to αvβ5 in the presence of 1 mM CaCl2. Phage that were bound were determined by their ability to infect F-pilus positive K91kan bacteria. Bacteria were grown overnight in microliter wells in the presence of tetracycline and the absorbance indicative of bacterial growth was read at 600 nm with an ELISA plate reader.
Relative affinities of the […] [SEQ ID NO:12] and CRGDC [SEQ ID NO:37] peptides were determined by inhibition of binding of peptide-displaying phage to α5β1 integrin. Peptide-displaying phage were constructed as described by Scott and Smith, Science 249:386–390 (1990) and Example IV. Microwell plates were coated with various integrins as described by Koivunen et al., J. Biol. Chem., 268:20205–10 (1993) and Example II.
The binding of […] [SEQ ID NO:12]-containing peptide ligands to α5β1 integrin was performed as follows. RRETAWA [SEQ ID NO:8]-displaying phage were incubated for 1 hour in the presence of various concentrations of the cyclic peptides containing […] [SEQ ID NO:12] and containing CRGDC [SEQ ID NO:37] in microliter wells coated with the α5β1 integrin. Binding was quantitated by adding K91kan bacteria directly to the wells and growing the bacteria overnight at room temperature (Smith and Scott, Meth. Enzymol., 217:228–257 (1993), which is incorporated herein by reference).
Additional peptide motifs were tested as follows. ELRGDGW-displaying [SEQ ID NO:4] phage were added together with various concentrations of the cyclic peptides containing […] [SEQ ID NO:12] and containing CRGDC [SEQ ID NO:37] into microliter wells coated with the α5β1 integrin, incubated for 1 hour at room temperature and binding to wells was quantitated.

[3] = tested on: α5β1 integrin; assay: Inhibition of α5β1-mediated cell attachment to fibronectin; format: cell-based, human
Source text: Cell lines expressing different integrins were used to examine peptide inhibition of integrin function. A human melanoma cell line, C8161, a fibroblast cell line, WI-38, and an osteosarcoma cell line, MG-63 (described by Seftor et al., Canc. Res., 53:3411–3415 (1993); Vogel et al., J. Biol. Chem., 265:5934–5937 (1990); and Pytela et al. (1985), supra, respectively, each of which is incorporated herein by reference) attach to fibronectin through α5β1 integrin, as does B2/α27, a CHO cell line transfected with human α5. B2/C1, the control parental CHO line (Bauer et al., J. Cell. Biol. 116:477–487 (1992), which is incorporated herein by reference), attaches via […]. CHO cells C11 and NIH 3T3 cells express the endogenous Chinese hamster and mouse α5β1 integrins, respectively. The human melanoma cells, A375-M, attach to fibronectin through both α5β1 and α4β1 integrins (Mould et al., J. Biol. Chem. 265:4020–4024 (1990), which is incorporated herein by reference). CHO cell line B2/v7 express the αvβ1 integrin (Zhang et al., J. Cell. Biol. 122:235–242 (1993), which is incorporated herein by reference). The vitronectin-binding integrins […] and αvβ3 were assayed using the cell line HT-29 and IMR-90, respectively (Koivunen et al., J. Biol. Chem. 268: 20205–20210 (1993)).
as §1
Inhibition of cell attachment mediated by either fibronectin- or vitronectin-binding integrins was performed to determine peptide specificity in a biologically relevant system. The assays and cell lines were performed as described above. FIGS. 5 and 6 show the results of cell attachment mediated by the fibronectin binding integrins α5β1 and αvβ1.

[4] = target: T1, α5β1 integrin; assay: Panning and binding of peptide-displaying phage on α5β1 integrin; conditions: phage-displayed sequence
Source text: as §2
Peptide libraries were constructed in fuse 5 vector (Scott and Smith, Science 249:386–390 (1990)) as described previously (Koivunen et al., J. Cell Biol., 124:373–380 (1994). The CX5C, CX6C, CX7C and CX9 [SEQ ID NOs:39–42, respectively] libraries were prepared using synthetic oligonucleotides containing core sequences TGT(NNK)5TGT, TGT(NNK)6TGT, TGT(NNK)7TGT and TGT(NNK)9 [SEQ ID NOS:43–46, respectively] (N=equal molar mixture of A, C, G, T; K=G or T), respectively. The oligonucleotides were made double-stranded by PCR amplification with 5 cycles, purified and ligated to the N-terminus of pIII gene of fuse 5 vector. The CX5C, CX6C, CX7C and CX9 [SEQ ID NOS:39–42, respectively] vectors were transfected into MC1061 cells using 16, 60, 263 and 250 electroporations, respectively. Bacteria were cultured for 24 hours in the presence of 20 μg/ml of tetracycline, and phage were collected from the supernatant by precipitation twice with polyethylene glycol. The phage pellets were dissolved at approximately 10^13 transducing units (TU)/ml in TBS buffer containing 0.02% NaN3 and stored at 4° C. The yields of the CX5C, CX6C, CX7C and CX9 [SEQ ID NOS:39–42, respectively] primary libraries were 3.5×10^8, 1.1×10^9, 4.5×10^5 and 3.5×10^8 clones, respectively. […]
as §3, with “Biol., 124:373–380 (1994). Phage binding to α5β1 and αvβ3 were assayed in TBS buffer containing 1% BSA and 1 mM MnCl2 and binding to αvβ5 in the presence of 1 mM CaCl2.” left out

[5] = target: αvβ3 integrin (Homo sapiens, UniProt P05106+P06756); assay: Inhibition of peptide-displaying phage binding to αvβ3 integrin by synthetic peptides; design: The αvβ3, αvβ5 and α5β1 integrins were isolated from human placental extracts; from tissue; host or cells: human placenta; conditions: CRGDCL-displaying phage, αvβ3-coated wells; FIG. 3 (result sentence prints α5β1)
Chain of αvβ3 integrin (P06756 31-889 limits assumed): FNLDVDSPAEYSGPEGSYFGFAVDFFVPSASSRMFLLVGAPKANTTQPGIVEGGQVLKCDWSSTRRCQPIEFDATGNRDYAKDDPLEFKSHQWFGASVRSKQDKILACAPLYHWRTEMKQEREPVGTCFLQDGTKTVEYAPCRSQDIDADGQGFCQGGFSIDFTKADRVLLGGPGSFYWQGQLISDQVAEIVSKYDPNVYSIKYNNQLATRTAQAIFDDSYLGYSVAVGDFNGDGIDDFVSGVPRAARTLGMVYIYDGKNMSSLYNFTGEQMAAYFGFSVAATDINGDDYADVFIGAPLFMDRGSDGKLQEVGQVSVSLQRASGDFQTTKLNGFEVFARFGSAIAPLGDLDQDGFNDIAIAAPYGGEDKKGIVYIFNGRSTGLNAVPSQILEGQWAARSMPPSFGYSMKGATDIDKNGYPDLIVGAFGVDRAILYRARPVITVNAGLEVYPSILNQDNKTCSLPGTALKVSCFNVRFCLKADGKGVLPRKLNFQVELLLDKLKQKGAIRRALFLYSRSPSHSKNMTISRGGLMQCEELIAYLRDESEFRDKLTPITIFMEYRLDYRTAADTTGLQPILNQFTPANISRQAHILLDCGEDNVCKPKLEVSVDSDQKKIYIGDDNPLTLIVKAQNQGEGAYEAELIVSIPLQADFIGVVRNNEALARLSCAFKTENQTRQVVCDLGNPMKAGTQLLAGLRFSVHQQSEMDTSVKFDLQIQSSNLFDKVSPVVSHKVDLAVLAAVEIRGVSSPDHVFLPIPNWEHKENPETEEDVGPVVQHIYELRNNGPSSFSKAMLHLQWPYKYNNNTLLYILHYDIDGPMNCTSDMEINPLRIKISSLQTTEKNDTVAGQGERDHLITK
Chain of αvβ3 integrin (P06756 891-1048 partner limits assumed): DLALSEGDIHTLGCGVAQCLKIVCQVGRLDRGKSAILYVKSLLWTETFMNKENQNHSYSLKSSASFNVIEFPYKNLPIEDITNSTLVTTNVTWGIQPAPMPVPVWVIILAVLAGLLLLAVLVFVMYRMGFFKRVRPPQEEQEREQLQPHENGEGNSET
Chain of αvβ3 integrin (P05106 27-788): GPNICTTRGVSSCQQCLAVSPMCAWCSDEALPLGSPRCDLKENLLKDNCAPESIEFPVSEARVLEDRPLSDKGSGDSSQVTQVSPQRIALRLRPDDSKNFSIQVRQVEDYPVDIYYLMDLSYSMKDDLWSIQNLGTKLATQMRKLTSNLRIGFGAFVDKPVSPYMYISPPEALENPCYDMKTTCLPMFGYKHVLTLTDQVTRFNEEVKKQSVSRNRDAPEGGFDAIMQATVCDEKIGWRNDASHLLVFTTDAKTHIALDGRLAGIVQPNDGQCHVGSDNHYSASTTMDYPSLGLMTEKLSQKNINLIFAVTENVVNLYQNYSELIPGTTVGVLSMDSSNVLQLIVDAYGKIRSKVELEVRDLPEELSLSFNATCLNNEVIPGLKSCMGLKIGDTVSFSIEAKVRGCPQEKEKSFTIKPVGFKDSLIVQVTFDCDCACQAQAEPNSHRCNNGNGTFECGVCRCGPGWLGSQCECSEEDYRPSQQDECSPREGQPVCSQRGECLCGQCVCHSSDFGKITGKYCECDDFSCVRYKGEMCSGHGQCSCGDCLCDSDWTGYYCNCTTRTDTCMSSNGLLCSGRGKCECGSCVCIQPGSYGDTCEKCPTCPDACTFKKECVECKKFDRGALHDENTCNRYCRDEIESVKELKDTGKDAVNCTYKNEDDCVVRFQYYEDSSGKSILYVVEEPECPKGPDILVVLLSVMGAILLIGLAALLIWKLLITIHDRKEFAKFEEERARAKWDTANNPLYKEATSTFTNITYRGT
Source text: as §2, §3
The ability of […] [SEQ ID NO:12] and CRGDC [SEQ ID NO:37] containing peptides to inhibit binding of CRGDCL-displaying [SEQ ID NO:7] phage to the microwells coated with αvβ3 integrin also was examined. CRGDCL-displaying [SEQ ID NO:7] phage were added to a well and either cyclic […] [SEQ ID NO:6] or cyclic […] [SEQ ID NO:5] was added to compete for binding. Binding was quantitated as described above.

[6] = target: α4β1 (Homo sapiens, UniProt P05556+P13612); conditions: Nowlin et al., J. Biol. Chem. 268:20352–59 (1993); cited from earlier work
Chain of α4β1 (P13612 34-1032): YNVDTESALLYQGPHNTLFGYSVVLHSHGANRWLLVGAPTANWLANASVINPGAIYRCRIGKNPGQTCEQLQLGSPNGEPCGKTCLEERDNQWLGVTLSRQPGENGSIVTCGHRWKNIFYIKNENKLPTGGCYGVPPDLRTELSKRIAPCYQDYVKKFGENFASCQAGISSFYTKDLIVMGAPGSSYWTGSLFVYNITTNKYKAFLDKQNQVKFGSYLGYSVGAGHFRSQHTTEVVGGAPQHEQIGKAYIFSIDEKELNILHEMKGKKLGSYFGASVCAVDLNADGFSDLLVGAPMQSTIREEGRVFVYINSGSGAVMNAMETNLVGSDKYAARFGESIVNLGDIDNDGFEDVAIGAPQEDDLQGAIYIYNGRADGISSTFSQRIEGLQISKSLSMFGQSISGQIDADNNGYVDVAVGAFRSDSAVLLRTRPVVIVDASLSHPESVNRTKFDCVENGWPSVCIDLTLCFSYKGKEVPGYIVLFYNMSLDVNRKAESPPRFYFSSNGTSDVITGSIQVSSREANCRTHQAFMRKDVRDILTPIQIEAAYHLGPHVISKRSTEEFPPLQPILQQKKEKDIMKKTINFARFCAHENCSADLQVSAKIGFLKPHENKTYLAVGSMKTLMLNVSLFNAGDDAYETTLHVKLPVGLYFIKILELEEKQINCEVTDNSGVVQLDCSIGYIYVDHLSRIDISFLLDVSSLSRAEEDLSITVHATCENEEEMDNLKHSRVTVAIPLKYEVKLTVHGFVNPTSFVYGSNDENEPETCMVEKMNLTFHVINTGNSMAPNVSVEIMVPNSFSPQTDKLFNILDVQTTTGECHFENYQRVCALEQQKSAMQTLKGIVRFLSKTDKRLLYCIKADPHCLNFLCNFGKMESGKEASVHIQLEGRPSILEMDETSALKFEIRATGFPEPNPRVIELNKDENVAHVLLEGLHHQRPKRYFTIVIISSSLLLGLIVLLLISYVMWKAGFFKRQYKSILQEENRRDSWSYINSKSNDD
Chain of α4β1 (P05556 21-798): as the sequence (P05556 21-798) above

[7] = target: α5β1 (Homo sapiens, UniProt P05556+P08648); conditions: Nowlin et al., J. Biol. Chem. 268:20352–59 (1993); cited from earlier work
Chain of α5β1 (P08648 42-894 limits assumed): as the sequence (P08648 42-894 limits assumed) above
Chain of α5β1 (P08648 895-1049 partner limits assumed): as the sequence (P08648 895-1049 partner limits assumed) above
Chain of α5β1 (P05556 21-798): as the sequence (P05556 21-798) above

Compound: O=C(O)CN(CCN(CC(=O)O)CC(=O)O)CC(=O)O [EDTA, reference compound]
- inhibition of B2/α27 attachment to immobilized RRETAWA-containing peptide ([1]; inhibitor at 10 mM): inhibited

Compound: CRGDGWC [A*CRGDGWC*G]
- activity in inhibiting binding of RGD-displaying phage to α5β1 relative to *CRGDC* ([2]; RGDGW phage, more active than *CRGDC*, FIG. 9): 5 fold
- IC50 ([3]; B2/a27 cells (human α5, CHO β1), FIG. 11, read-out: IC50 of inhibition of attachment of B2/a27 cells to fibronectin): 6 µM
- potency relative to *CRGDC* in B2/a27 attachment to fibronectin ([3]; B2/a27 cells, more potent than *CRGDC*): 7 fold
- potency relative to *CRRETAWAC* in B2/a27 attachment to fibronectin ([3]; B2/a27 cells, more potent than *CRRETAWAC*): 7 fold
- potency relative to *CRRETAWAC* in MG 63 cells ([3]; MG 63 cells, more potent than *CRRETAWAC*): 4 fold
- IC50 ([3]; MG 63 cells, read-out: IC50 of inhibition of attachment of MG 63 cells to fibronectin): 10 µM
- improvement in activity compared to linear GRGDSP ([3]; α5β1-mediated attachment to fibronectin): about 50 fold
- binding of peptide-displaying phage to the α5β1 integrin [4]: among the best binders

Compound: CRSETYWKC
- binding of peptide-displaying phage to the α5β1 integrin [4]: selectively bind

Compound: GACRGDCLGA (disulfide 3-7 (inferred)) [reference compound]
- inhibition of binding of ELRGDGW-displaying phage to α5β1 integrin ([2]; ELRGDGW-displaying phage, CRRETAWAC compared with CRGDC, FIG. 2): approximately the same degree
- inhibition of B2/α27 attachment to immobilized RRETAWA-containing peptide ([1]; inhibitor at 1 mM): inhibited
- inhibition of binding of CRGDCL-displaying phage to integrin-coated wells [5]: completely inhibited

Compound: GRGESP [reference compound]
- effect on RRETAWA-displaying phage binding to α5β1 ([2]; RRETAWA-displaying phage, FIG. 4): no effect
- effect on α5β1-mediated cell attachment to fibronectin ([3]; B2/α27 cells, FIG. 5): no effect

Compound: RCD(ThioP)C
- binding to α4β1 [6]: high affinity
- binding to α5β1 [7]: high affinity
